Results: patent US20120238488A1, “COMPOUNDS AND METHODS FOR TREATING NEOPLASIA” (priority 2009, published 2012)

Tests used:
SF295 (CNS) = assay: SRB assay, SF295; assay type: cell-based, human
Experimental: (§1) SRB assays were performed according to standard National Cancer Institute Guidelines. Briefly, human tumor cells from different cancer panels were seeded into 96 well plates in 100 μL (plating densities ranging from 5-40,000 cells/well depending on the doubling time of individual cell lines) in serum-containing media for twenty-four hours prior to the addition of the compounds to be assayed. After 24 hours, one plate of each cell line was fixed in situ with trichloroacetic acid (TCA). The fixed slides were used to determine the cell population for each cell line at the time of drug addition (Tz). Each compound to be tested was solubilized in DMSO and the desired concentration was then added to the medium and diluted serially 1:10 to provide a total of five or ten drug concentrations plus control (in a final volume of 200 μL). The starting dose before any dilution was 100 uM for all compounds.
(§2) Following drug addition, each culture was incubated for forty-eight hours. The assay was terminated with the addition of cold TCA. The supernatant was discarded, and the plates were washed with tap water and air dried. Sulforhodamine B (SRB) solution was then added to each well. After staining, the bound stain was solubilized and the absorbance was read on an automated plate reader at a wavelength of 515 nm.
(§3) Using the absorbance measurements [time zero, (Tz), control growth, (C), and test growth in the presence of drug at the ten concentration levels (Ti)], the percentage growth was calculated at each of the drug concentrations levels. Percentage growth inhibition was calculated as:
(§4) [(Ti−Tz)/(C−Tz)]×100 for concentrations for which Ti>/=Tz […]
(§5) Three dose response parameters were calculated for each experimental agent. […] The drug concentration resulting in total growth inhibition (TGI) was calculated from Ti=Tz. […]
(§6) Values were calculated for each of these three parameters when the level of activity was reached; however, if the effect was not reached or was exceeded, the value for that parameter was expressed as greater or less than the maximum or minimum concentration tested. […]

T470 (Breast) = assay: SRB assay, T470; assay type: cell-based, human; conditions: 48 h
Experimental: as §1, §2, §3, §4, §5, §6

[1] = test system: PC-3 xenografts (prostate adenocarcinoma, grade IV); assay: PC-3 xenograft anti-tumor activity
Experimental: Compound 56 was tested for its anti-tumor activity in PC-3 and A549 xenografts. To generate xenografts in mice, exponentially growing cultures of approximately 10^6 PC-3 cells (prostate adenocarcinoma, grade IV) or A549 cells (lung carcinoma) were injected subcutaneously according to the British practice of bilateral trocar implants at the axillary region of 6-8 weeks old male (PC-3 cells) or female (A549 cells) Nod/Scid mice. The two tumor cell inoculums were added together for each mouse, thus producing a tumor burden per mouse value for data analysis. The advantage of the British system is reduced mouse-to-mouse variability and, thus, the ability to decrease the total number of animals per group, with five or six being sufficient for accurate data analysis of tumor response and evaluation of toxicities.
Tumor volume was calculated according to the formula [(axb2)/2], where a=length and b=width of the tumor as measured with a vernier's caliper (measurements were performed twice a week). All administrations were intraperitoneal. Treated animals received a single injection according to the schedule described for each study (see below). In addition to tumor volume, the parameter, % DT/DC, was calculated, where DT=T−Do and DC=C−Do (Do is the average tumor volume at the beginning of the treatment; T and C are the volumes of treated and untreated tumors, respectively, at a specified day). Optimal DT/DC value was used as a measure of drug activity. Losses of weight, neurological disorders and behavioral and dietary changes were also recorded as indicators of toxicity (side effects). The experiment was terminated when tumor size in untreated animals reached a volume of about 1000-1500 mm^3. All animals were treated according to Greek laws (2015/92), guidelines of the European Union and the European council (86/609 and ETS123, respectively), and Compliance with Standards for Human Care and Use of Laboratory Animals, NIH, USA (Assurance No. A5736-01).
In order to develop PC-3 xenografts, male mice 6-8 weeks old were inoculated bilateral at the two axilla regions at day 0.
Compound 56 was administered intraperitoneallly at the following dpis: d13, d14, d15, d16, d17, d20, d21, d22, d23, d24, d27, d28, 29, d30.

Question: What does the source list for `C[C@]12CCC(=NOCCN)C=C1CCC1C2CC[C@]2(C)C(=O)CCC12` (stereo partly drawn) [Compound 12, (10R,13S)-3-(2-aminoethoxyimino)-10,13-dimethyl-2,3,7,8,9,10,11,12,13,14,15,16-dodecahydro-1H-cyclopenta[a]phenanthren-17(6H)-one]?
Answer: CC50 (SF295 (CNS); Homo sapiens, SF-295, 48 h, read-out: LC50): 9.04 µM; GI50 (SF295 (CNS); Homo sapiens, SF-295, SF295, SRB, 48 h): 3.26 µM; TGI (SF295 (CNS); SF295, SRB, 48 h): 6.15 µM; CC50 (T470 (Breast); Homo sapiens, read-out: LC50): 69.6 µM; GI50 (T470 (Breast); Homo sapiens, T470, SRB): 5.98 µM; TGI (T470 (Breast); T470, SRB): 26.42 µM

Question: What does the source list for `C[C@]12CCC(=NOC3CCNC3)CC1CCC1C2CC[C@]2(C)C(=O)CCC12` (stereo partly drawn) [Compound 56, (10S,13S)-10,13-dimethyl-3-(pyrrolidin-3-yloxyimino)tetradecahydro-1H-cyclopenta[a]phenanthren-17(2H)-one]?
Answer: post mortem analysis on excised PC-3 tumors: tumor growth inhibition ([1]; 17 mgk intraperitoneal): statistical significant tumor growth inhibition; toxicity (body weight, deaths) ([1]; PC-3 xenograft mice, compound 56 17 mgk, digoxin 2 mgk, intraperitoneal): not toxic; metastases versus control group (post mortem) ([1]; PC-3 xenografts, 17 mgk intraperitoneal): suppression of bone lymph node and front axilla metastases; optimal DT/DC ([1]; PC-3 xenografts, 17 mgk intraperitoneal, day 34, p=6×10^−6): 48.71%; anti-tumor activity in PC-3 xenografts (FIG. 2A) ([1]; mouse, in vivo): has anti-tumor activities
